Experiment: xn = mol fraction of the nth substance listed
Details: 101 kPa

O=C([O-])CC(O)(CC(=O)[O-])C(=O)[O-].[Li+].[Li+].[Li+] + CC[n+]1ccn(C)c1.O=S(=O)([O-])O + O
viscosity [mPa·s]
Details	293.15 K	298.15 K	303.15 K	308.15 K	313.15 K
x1 = 0.0003639, x2 = 0	1.022	0.927	0.835	0.757	0.691
x1 = 0.0007293, x2 = 0	1.043	0.946	0.854	0.776	0.712
x1 = 0.0008074, x2 = 0.0007287	1.082	1.003	0.885	0.81	0.751
x1 = 0.0008123, x2 = 0.000664	1.069	0.99	0.883	0.811	0.734
x1 = 0.0008236, x2 = 0.0009246	1.112	1.003	0.906	0.825	0.745
x1 = 0.0009579, x2 = 0.0007286	1.09	1.01	0.892	0.817	0.758
x1 = 0.000959, x2 = 0.0006639	1.077	0.996	0.89	0.818	0.741
x1 = 0.001091, x2 = 0	1.063	0.961	0.869	0.793	0.729
x1 = 0.001134, x2 = 0.0009243	1.13	1.017	0.92	0.84	0.761
x1 = 0.001339, x2 = 0.0009241	1.142	1.025	0.929	0.849	0.771
x1 = 0.001445, x2 = 0	1.083	0.974	0.883	0.807	0.745
x1 = 0.001498, x2 = 0.0007282	1.121	1.032	0.914	0.841	0.784
x1 = 0.001582, x2 = 0.0006634	1.113	1.021	0.915	0.845	0.769
x1 = 0.001715, x2 = 0.000728	1.134	1.04	0.923	0.85	0.794
x1 = 0.001743, x2 = 0.0006633	1.122	1.026	0.922	0.852	0.776
x1 = 0.001787, x2 = 0.0009237	1.169	1.042	0.947	0.869	0.791
x1 = 0.001793, x2 = 0	1.102	0.986	0.896	0.821	0.759
x1 = 0.002226, x2 = 0	1.126	1	0.911	0.837	0.777
x1 = 0.002241, x2 = 0.000663	1.15	1.044	0.94	0.871	0.797
x1 = 0.002241, x2 = 0.0007276	1.164	1.059	0.942	0.871	0.817
x1 = 0.002293, x2 = 0.0009233	1.198	1.061	0.967	0.89	0.814
x1 = 0.002592, x2 = 0.0006628	1.17	1.055	0.952	0.884	0.811
x1 = 0.002633, x2 = 0.0007274	1.186	1.073	0.956	0.886	0.833
x1 = 0.002689, x2 = 0.0009229	1.221	1.074	0.981	0.906	0.831
x1 = 0.002748, x2 = 0	1.155	1.016	0.928	0.855	0.797

Reference: the CheMixHub ionic liquid set
